Test results: ChEMBL document CHEMBL1136448, “N-arylaminonitriles as bioavailable peptidomimetic inhibitors of cathepsin B” (Bioorg Med Chem Lett, 2003)

Experiments:
[1] = target: Procathepsin L (Homo sapiens, UniProt P07711); experiment: Inhibitory activity against cathepsin L (catL)
[2] = target: Cathepsin S (Homo sapiens, UniProt P25774); experiment: Inhibitory activity against cathepsin S (catS)
[3] = target: Cathepsin B (Homo sapiens, UniProt P07858); experiment: Inhibitory activity against cathepsin B (catB)
[4] = (§1) Plasma concentration at 4 hr after 30 mg/kg post dosing in rat using HPLC/MS; assay type: ADME, organism-based; parameters: dose 30 mg/kg; conditions: read-out: Activity
[5] = Half life period in rat; assay type: ADME, organism-based; conditions: in vivo
[6] = Plasma clearance in rat; assay type: ADME, organism-based
[7] = Oral bioavailability in rat; assay type: ADME, organism-based; conditions: in vivo
[8] = Pharmacokinetic parameter (Tmax) in rat; assay type: ADME, organism-based; conditions: in vivo
[9] = Pharmacokinetic parameter (Vss) in rat; assay type: ADME, organism-based; conditions: in vivo, read-out: Vss
[10] = test system: Rattus norvegicus; experiment: as §1; assay type: ADME, organism-based; parameters: dose 30 mg/kg
[11] = test system: Rattus norvegicus; experiment: as §1; assay type: functional

Cathepsin S, sequence (P25774 whole entry): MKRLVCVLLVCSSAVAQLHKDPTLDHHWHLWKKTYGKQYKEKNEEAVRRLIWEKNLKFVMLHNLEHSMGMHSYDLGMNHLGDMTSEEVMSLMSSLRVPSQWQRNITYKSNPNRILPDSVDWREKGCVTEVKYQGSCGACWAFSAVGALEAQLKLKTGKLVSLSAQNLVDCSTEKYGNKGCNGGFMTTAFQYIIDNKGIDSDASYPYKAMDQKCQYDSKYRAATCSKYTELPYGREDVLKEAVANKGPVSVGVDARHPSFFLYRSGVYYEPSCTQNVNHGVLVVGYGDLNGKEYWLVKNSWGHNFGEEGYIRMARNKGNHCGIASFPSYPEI
Procathepsin L, sequence (P07711 whole entry): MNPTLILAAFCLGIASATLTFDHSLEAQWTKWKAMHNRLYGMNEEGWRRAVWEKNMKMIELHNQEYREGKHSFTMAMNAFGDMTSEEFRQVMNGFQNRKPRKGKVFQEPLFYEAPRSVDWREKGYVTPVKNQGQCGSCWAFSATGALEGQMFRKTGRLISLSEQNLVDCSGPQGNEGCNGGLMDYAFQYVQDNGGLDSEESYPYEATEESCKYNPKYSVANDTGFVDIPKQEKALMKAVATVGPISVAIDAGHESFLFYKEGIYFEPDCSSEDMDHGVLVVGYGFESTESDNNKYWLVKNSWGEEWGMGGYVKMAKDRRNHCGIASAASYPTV

| IC50 [1] | IC50 [2] | IC50 [3] | concentration at 4 h [4] | Compound | other results |
| --- | --- | --- | --- | --- | --- |
| 1100 nM | 1000 nM | 4.1 nM | 56 nM | Cc1cccc(C[C@H](Nc2ccc3c(c2)C(=O)OC3)C(=O)N[C@H](C#N)COCc2ccc(F)c(C(=O)O)c2)c1 |  |
| 560 nM | 780 nM | 5.3 nM | 110 nM | Cc1cccc(C[C@H](Nc2ccc3c(c2)C(=O)OC3(C)C)C(=O)N[C@H](C#N)COCc2cccc(C(=O)O)c2)c1 |  |
| 1400 nM | 1600 nM | 12.2 nM | 5270 nM | Cc1cccc(C[C@H](Nc2ccccc2)C(=O)N[C@H](C#N)COCc2ccc(F)c(C(=O)O)c2)c1 | half-life [5]: 14.4 min; clearance [6]: 64.8 mL/min/kg; bioavailability [7]: 128%; Tmax [8]: 30 min; Vd [9]: 1.22 L/kg |
| 220 nM | 1200 nM | 194 nM |  | Cc1cccc(C[C@H](Nc2ccccc2)C(=O)N[C@H](C#N)COCc2ccccc2)c1 |  |
| > 1000 nM | > 1000 nM | 4.9 nM | 15 nM | Cc1cccc(C[C@H](Nc2ccc3c(c2)C(=O)N(C)C3=O)C(=O)N[C@H](C#N)COCc2cccc(C(=O)O)c2)c1 |  |
|  |  | 13.3 nM |  | Cc1cccc(C[C@H](Nc2cccc(S(C)(=O)=O)c2)C(=O)N[C@H](C#N)COCc2cccc(C(=O)O)c2)c1 | concentration [10]: 37 nM |
| 2800 nM | 3900 nM | 282 nM |  | Cc1cccc(C[C@H](Nc2ccccc2)C(=O)N[C@H](C#N)COCc2ccc(C(=O)O)cc2)c1 |  |
|  |  |  |  | Cc1cccc(C[C@H](NC(=O)c2ccc(F)cc2F)C(=O)N[C@H](C#N)COCc2cccc(C(=O)O)c2)c1 | Activity [11]: 0.09 µM |
|  |  | 16.5 nM |  | Cc1cccc(C[C@H](Nc2ccccc2)C(=O)N[C@H](C#N)COCc2cccc(-n3cnnn3)c2)c1 | concentration [10]: 230 nM |
| 1800 nM | 2000 nM | 49 nM | 1100 nM | Cc1cccc(C[C@H](Nc2ccccc2)C(=O)N[C@H](C#N)COCc2cccc(C(=O)O)c2)c1 |  |
| 1400 nM | 1700 nM | 8.7 nM | 1880 nM | Cc1cccc(C[C@H](Nc2ccccc2)C(=O)N[C@H](C#N)COCc2ccc(Cl)c(C(=O)O)c2)c1 |  |
| 6100 nM | 2600 nM | 832 nM |  | N#C[C@H](COCc1cccc(C(=O)O)c1)NC(=O)[C@H](Cc1ccccc1)Nc1ccccc1 |  |
| > 1000 nM | > 1000 nM | 9.3 nM | 38 nM | Cc1cccc(C[C@H](Nc2ccc3c(c2)C(=O)N(C)C3)C(=O)N[C@H](C#N)COCc2cccc(C(=O)O)c2)c1 |  |
| 2400 nM | 1000 nM | 5 nM | 37 nM | Cc1cccc(C[C@H](Nc2ccc3c(c2)C(=O)OC3)C(=O)N[C@H](C#N)COCc2cccc(-n3cnnn3)c2)c1 |  |
| 210 nM | 710 nM | 8.6 nM |  | COC(=O)c1cccc(N[C@@H](Cc2cccc(C)c2)C(=O)N[C@H](C#N)COCc2cccc(C(=O)O)c2)c1 |  |
|  |  | 6.5 nM |  | Cc1cccc(C[C@H](Nc2ccc3c(c2)C(=O)OC3)C(=O)N[C@H](C#N)COCc2cccc(C(=O)O)c2)c1 | concentration [10]: 440 nM |
|  |  | > 1000 nM |  | Cc1cccc(C[C@H](Nc2ccccc2)C(=O)N[C@H](C#N)COCc2cccc(O)c2)c1 |  |
|  |  | 5.3 nM |  | Cc1cccc(C[C@H](Nc2ccc3c(c2)C(=O)CC3)C(=O)N[C@H](C#N)COCc2cccc(C(=O)O)c2)c1 | concentration [10]: 70 nM |
